Reference: patent US7192906B2, “Substituted pyrazole derivatives, production process thereof, and herbicide compositions containing the derivatives” (SDS Biotech K.K., priority 2001, dated 2007)

Key:
Type in all cases: in vivo
Ammannia multiflora = assay: Test Example 3 paddy field treatment; conditions: active ingredient 1 kg per hectare, index 0-5
Protocol: (§1) A plastic pot of 130 cm^2 was filled with paddy soil, and soil puddling was carried out to adjust the submerged depth to 4 cm. Subsequently, seeds of Echinochloa crusgalli, Monochoria vaginalis, Ammannia multiflora and Scirpus juncoides were sowed, and rice (Oryza sative, variety: Koshihikari) of two-leaf period was transplanted by 2 rice plants of 1 stub per pot at a depth of 3 cm. On the 10th day after the transplantation, the wettable powder prepared in Formulation Example 1 was diluted with water such that the amount of the active ingredient became 1 kg per hectare, and then dropped to diffuse on the water surface. On the 21st day after the dropping, observation and evaluation were carried out according to the aforesaid criteria.
(§2) Herbicidal activity was evaluated based on the following criteria.
(§3) • 5: herbicidal effect of not less than 90%, or phytotoxicity of 90% or more • 4: herbicidal effect of not less than 70% and less than 90%, or phytotoxicity of 70% or more and less than 90% • 3: herbicidal effect of not less than 50% and less than 70%, or phytotoxicity of 50% or more and less than 70% • 2: herbicidal effect of not less than 30% and less than 50%, or phytotoxicity of 30% or more and less than 50% • 1: herbicidal effect of not less than 10% and less than 30%, or phytotoxicity of 10% or more and less than 30% • 0: herbicidal effect of not less than 0% and less than 10%, or phytotoxicity of 0% or more and less than 10%

Monochoria vaginalis = assay: Test Example 3 paddy field treatment; conditions: active ingredient 1 kg per hectare, index 0-5
Protocol: as §1, §2, §3

Echinochloa crusgalli = assay: Test Example 3 paddy field treatment; conditions: active ingredient 1 kg per hectare, index 0-5
Protocol: as §1, §2, §3

Scirpus juncoides = assay: Test Example 3 paddy field treatment; conditions: active ingredient 1 kg per hectare, index 0-5
Protocol: as §1, §2, §3

Rice (Oryza sativa) = assay: Test Example 3 paddy field treatment, crop phytotoxicity; conditions: active ingredient 1 kg per hectare, index 0-5; for Herbicidal activity OS (phytotoxicity to rice): paddy field treatment, transplanted rice Koshihikari, wettable powder, 21st day after the dropping; for Herbicidal activity (phytotoxicity) OS: Table 6, paddy field treatment, transplanted rice, 21st day after dropping
Protocol: as §1, §2, §3

Stellaria media [1] = assay: Test Example 1 upland field foliage treatment; conditions: Table 4, upland field foliage treatment, index 0-5
Protocol: (§4) A plastic pot of 130 cm^2 was filled with upland soil. Subsequently, weed seeds of Setaria viridis, Digitaria adscendens, Chenopodium album and Stellaria media, and crop seeds of soybean (Glycine max) and wheat (Triticum aestivum), were sowed and covered with soil of about 1 cm thickness. On the 14th day after the sowing, the wettable powder prepared in Formulation Example 1 was diluted with water such that the amount of the active ingredient became 1 kg per hectare, and then uniformly applied to the plant leaf surfaces. On the 21st day after the application, observation and evaluation were carried out according to the criteria described below.
as §2, §3

Setaria viridis [2] = assay: Test Example 1 upland field foliage treatment; conditions: Table 4, upland field foliage treatment, index 0-5
Protocol: as §4, §2, §3

Chenopodium album [3] = assay: Test Example 1 upland field foliage treatment; conditions: Table 4, upland field foliage treatment, index 0-5
Protocol: as §4, §2, §3

Digitaria adscendens [4] = assay: Test Example 1 upland field foliage treatment; conditions: Table 4, upland field foliage treatment, index 0-5
Protocol: as §4, §2, §3

[5] = test system: wheat (Triticum aestivum); assay: Test Example 1 upland field foliage treatment, crop phytotoxicity; conditions: Table 4, upland field foliage treatment, index 0-5
Protocol: as §4, §2, §3

soybean (Glycine max) [6] = assay: as above; conditions: Table 4, upland field foliage treatment, index 0-5
Protocol: as §4, §2, §3

Stellaria media [7] = assay: Test Example 2 upland soil treatment; conditions: Table 5, upland soil treatment, index 0-5
Protocol: as §4, with “next” for “14th”, “soil surface.” for “plant leaf surfaces.”, “aforesaid criteria.” for “criteria described below.”
as §2, §3

Setaria viridis [8] = assay: Test Example 2 upland soil treatment; conditions: Table 5, upland soil treatment, index 0-5
Protocol: as §4, with “next” for “14th”, “soil surface.” for “plant leaf surfaces.”, “aforesaid criteria.” for “criteria described below.”
as §2, §3

Chenopodium album [9] = assay: Test Example 2 upland soil treatment; conditions: Table 5, upland soil treatment, index 0-5
Protocol: as §4, with “next” for “14th”, “soil surface.” for “plant leaf surfaces.”, “aforesaid criteria.” for “criteria described below.”
as §2, §3

Digitaria adscendens [10] = assay: Test Example 2 upland soil treatment; conditions: Table 5, upland soil treatment, index 0-5
Protocol: as §4, with “next” for “14th”, “soil surface.” for “plant leaf surfaces.”, “aforesaid criteria.” for “criteria described below.”
as §2, §3

[11] = test system: wheat (Triticum aestivum); assay: Test Example 2 upland soil treatment, crop phytotoxicity; conditions: Table 5, upland soil treatment, index 0-5
Protocol: as §4, with “next” for “14th”, “soil surface.” for “plant leaf surfaces.”, “aforesaid criteria.” for “criteria described below.”
as §2, §3

soybean (Glycine max) [12] = assay: as above; conditions: Table 5, upland soil treatment, index 0-5
Protocol: as §4, with “next” for “14th”, “soil surface.” for “plant leaf surfaces.”, “aforesaid criteria.” for “criteria described below.”
as §2, §3

[13] = paddy field treatment, wettable powder, 21st day after the dropping
[14] = Table 6, paddy field treatment, 21st day after dropping

With `CNC(=O)C(Cn1cc(C)c(C2CCCCC2)n1)=NOC` [Compound 11] the “Herbicidal activity AM” value (Ammannia multiflora; [13]) was 5 (herbicidal effect of not less than 90%, or phytotoxicity of 90% or more), the “Herbicidal activity MV” value (Monochoria vaginalis; [13]) was 5 (herbicidal effect of not less than 90%, or phytotoxicity of 90% or more) and the “Herbicidal activity EC” value (Echinochloa crusgalli; [13]) was 5 (herbicidal effect of not less than 90%, or phytotoxicity of 90% or more). The “Herbicidal activity SJ” value (Scirpus juncoides; [13]) was 5 (herbicidal effect of not less than 90%, or phytotoxicity of 90% or more), the “Herbicidal activity OS (phytotoxicity to rice)” value (Rice (Oryza sativa)) was 1 (herbicidal effect of not less than 10% and less than 30%, or phytotoxicity of 10% or more and less than 30%) and the “Herbicidal activity SM: Stellaria media” value (Stellaria media [1]) was 3 (herbicidal effect of not less than 50% and less than 70%, or phytotoxicity of 50% or more and less than 70%). For the same molecule, the “Herbicidal activity SV: Setaria viridis” value (Setaria viridis [2]) was 3 (herbicidal effect of not less than 50% and less than 70%, or phytotoxicity of 50% or more and less than 70%), the “Herbicidal activity CA: Chenopodium album” value (shortened to “Herbicidal activity CA”) (Chenopodium album [3]) was 5 (herbicidal effect of not less than 90%, or phytotoxicity of 90% or more) and the “Herbicidal activity DA: Digitaria adscendens” value (from here on “Herbicidal activity DA”) (Digitaria adscendens [4]) was 5 (herbicidal effect of not less than 90%, or phytotoxicity of 90% or more). The “Herbicidal activity (phytotoxicity) TA: Wheat (Triticum aestivum)” value (shortened to “Herbicidal activity (phytotoxicity) TA”) [5] was 0 (herbicidal effect of not less than 0% and less than 10%, or phytotoxicity of 0% or more and less than 10%) and the “Herbicidal activity (phytotoxicity) GM: Soybean (Glycine max)” value (from here on “Herbicidal activity (phytotoxicity) GM”) (soybean (Glycine max) [6]) was 0 (herbicidal effect of not less than 0% and less than 10%, or phytotoxicity of 0% or more and less than 10%).
`CNC(=O)C(Cn1cc(C)c(-c2c(F)cccc2F)n1)=NOC` [Compound 58, 2-methoxyimino-3-((2′,6′-difluorophenyl)-4-methyl-pyrazole)-1-yl-propanoic acid-N-methylamide] was tested, and the “Herbicidal activity AM” value (Ammannia multiflora; [14]) was 5 (herbicidal effect of not less than 90%, or phytotoxicity of 90% or more), the “Herbicidal activity MV” value (Monochoria vaginalis; [14]) was 5 (herbicidal effect of not less than 90%, or phytotoxicity of 90% or more) and the “Herbicidal activity EC” value (Echinochloa crusgalli; [14]) was 5 (herbicidal effect of not less than 90%, or phytotoxicity of 90% or more). The “Herbicidal activity SJ” value (Scirpus juncoides; [14]) was 5 (herbicidal effect of not less than 90%, or phytotoxicity of 90% or more) and the “Herbicidal activity (phytotoxicity) OS” value (Rice (Oryza sativa)) was 1 (herbicidal effect of not less than 10% and less than 30%, or phytotoxicity of 10% or more and less than 30%).
With `CNC(=O)C(Cn1cc(C)c(-c2ccc(OC)cc2OC(F)F)n1)=NOC` [Compound 91] the “Herbicidal activity AM” value (Ammannia multiflora; [14]) was 5 (herbicidal effect of not less than 90%, or phytotoxicity of 90% or more), the “Herbicidal activity MV” value (Monochoria vaginalis; [14]) was 5 (herbicidal effect of not less than 90%, or phytotoxicity of 90% or more) and the “Herbicidal activity EC” value (Echinochloa crusgalli; [14]) was 5 (herbicidal effect of not less than 90%, or phytotoxicity of 90% or more). The “Herbicidal activity SJ” value (Scirpus juncoides; [14]) was 4 (herbicidal effect of not less than 70% and less than 90%, or phytotoxicity of 70% or more and less than 90%) and the “Herbicidal activity (phytotoxicity) OS” value (Rice (Oryza sativa)) was 0 (herbicidal effect of not less than 0% and less than 10%, or phytotoxicity of 0% or more and less than 10%).
`CNC(=O)C(Cn1cc(C)c(-c2ccc(F)c(C(F)(F)F)c2)n1)=NOC` [Compound 90] was tested, and the “Herbicidal activity AM” value (Ammannia multiflora; [14]) was 5 (herbicidal effect of not less than 90%, or phytotoxicity of 90% or more), the “Herbicidal activity MV” value (Monochoria vaginalis; [14]) was 5 (herbicidal effect of not less than 90%, or phytotoxicity of 90% or more) and the “Herbicidal activity EC” value (Echinochloa crusgalli; [14]) was 5 (herbicidal effect of not less than 90%, or phytotoxicity of 90% or more). The “Herbicidal activity SJ” value (Scirpus juncoides; [14]) was 4 (herbicidal effect of not less than 70% and less than 90%, or phytotoxicity of 70% or more and less than 90%) and the “Herbicidal activity (phytotoxicity) OS” value (Rice (Oryza sativa)) was 0 (herbicidal effect of not less than 0% and less than 10%, or phytotoxicity of 0% or more and less than 10%).
With `CNC(=O)C(Cn1cc(C)c(-c2ccc(C#N)cc2)n1)=NOC` [Compound 51] the “Herbicidal activity SM: Stellaria media” value (Stellaria media [7]) was 4 (herbicidal effect of not less than 70% and less than 90%, or phytotoxicity of 70% or more and less than 90%), the “Herbicidal activity SV: Setaria viridis” value (Setaria viridis [8]) was 4 (herbicidal effect of not less than 70% and less than 90%, or phytotoxicity of 70% or more and less than 90%) and the “Herbicidal activity CA” value (Chenopodium album [9]) was 4 (herbicidal effect of not less than 70% and less than 90%, or phytotoxicity of 70% or more and less than 90%). For the same molecule, the “Herbicidal activity DA” value (Digitaria adscendens [10]) was 4 (herbicidal effect of not less than 70% and less than 90%, or phytotoxicity of 70% or more and less than 90%), the “Herbicidal activity (phytotoxicity) TA” value [11] was 0 (herbicidal effect of not less than 0% and less than 10%, or phytotoxicity of 0% or more and less than 10%) and the “Herbicidal activity (phytotoxicity) GM” value (soybean (Glycine max) [12]) was 0 (herbicidal effect of not less than 0% and less than 10%, or phytotoxicity of 0% or more and less than 10%).
For `CNC(=O)C(Cn1cc(C)c(-c2ccccc2F)n1)=NOC` [Compound 42], the “Herbicidal activity AM” value (Ammannia multiflora; [13]) was 5 (herbicidal effect of not less than 90%, or phytotoxicity of 90% or more), the “Herbicidal activity MV” value (Monochoria vaginalis; [13]) was 5 (herbicidal effect of not less than 90%, or phytotoxicity of 90% or more) and the “Herbicidal activity EC” value (Echinochloa crusgalli; [13]) was 5 (herbicidal effect of not less than 90%, or phytotoxicity of 90% or more). For the same molecule, the “Herbicidal activity SJ” value (Scirpus juncoides; [13]) was 5 (herbicidal effect of not less than 90%, or phytotoxicity of 90% or more), the “Herbicidal activity OS (phytotoxicity to rice)” value (Rice (Oryza sativa)) was 0 (herbicidal effect of not less than 0% and less than 10%, or phytotoxicity of 0% or more and less than 10%) and the “Herbicidal activity SM: Stellaria media” value (Stellaria media [1]) was 5 (herbicidal effect of not less than 90%, or phytotoxicity of 90% or more). For the same molecule, the “Herbicidal activity SV: Setaria viridis” value (Setaria viridis [2]) was 5 (herbicidal effect of not less than 90%, or phytotoxicity of 90% or more), the “Herbicidal activity CA” value (Chenopodium album [3]) was 5 (herbicidal effect of not less than 90%, or phytotoxicity of 90% or more) and the “Herbicidal activity DA” value (Digitaria adscendens [4]) was 5 (herbicidal effect of not less than 90%, or phytotoxicity of 90% or more). The “Herbicidal activity (phytotoxicity) TA” value [5] was 0 (herbicidal effect of not less than 0% and less than 10%, or phytotoxicity of 0% or more and less than 10%) and the “Herbicidal activity (phytotoxicity) GM” value (soybean (Glycine max) [6]) was 0 (herbicidal effect of not less than 0% and less than 10%, or phytotoxicity of 0% or more and less than 10%).
In the case of `CNC(=O)C(Cn1cc(C)c(-c2cc(Cl)ccc2Cl)n1)=NOC` [Compound 73], the “Herbicidal activity AM” value (Ammannia multiflora; [14]) is reported as 4 (herbicidal effect of not less than 70% and less than 90%, or phytotoxicity of 70% or more and less than 90%), the “Herbicidal activity MV” value (Monochoria vaginalis; [14]) is reported as 5 (herbicidal effect of not less than 90%, or phytotoxicity of 90% or more) and the “Herbicidal activity EC” value (Echinochloa crusgalli; [14]) is reported as 5 (herbicidal effect of not less than 90%, or phytotoxicity of 90% or more). The “Herbicidal activity SJ” value (Scirpus juncoides; [14]) was 4 (herbicidal effect of not less than 70% and less than 90%, or phytotoxicity of 70% or more and less than 90%) and the “Herbicidal activity (phytotoxicity) OS” value (Rice (Oryza sativa)) was 0 (herbicidal effect of not less than 0% and less than 10%, or phytotoxicity of 0% or more and less than 10%).
